Reference: US11339161B2, “Triazolo pyridines as modulators of gamma-secretase” (Boehringer Ingelheim International GmbH, priority 2017, dated 2022)
Read-outs that look alike come from different tables or passages of the source.

Legend:
CSF1R (FMS) = CSF1R (FMS) (Homo sapiens, UniProt P07333); experiment: Z'-LYTE SelectScreen biochemical kinase assay CSF1R (FMS)
Description: (§1) Thermo Fisher Scientific SelectScreen™ Biochemical Kinase Profiling Service Z′-LYTE™ Screening Protocol and Assay Conditions Assay Theory
(§2) The […] biochemical assay employs a fluorescence-based, coupled-enzyme format and is based on the differential sensitivity of phosphorylated and non-phosphorylated peptides to proteolytic cleavage. The peptide substrate is labeled with two fluorophores—one at each end—that make up a FRET pair. In the primary reaction, the kinase transfers the gamma-phosphate of ATP to a single tyrosine, serine or threonine residue in a synthetic FRET-peptide. In the secondary reaction, a site-specific protease recognizes and cleaves non-phosphorylated FRET-peptides. Phosphorylation of FRET-peptides suppresses cleavage by the Development Reagent. Cleavage disrupts FRET between the donor (i.e., coumarin) and acceptor (i.e., fluorescein) fluorophores on the FRET-peptide, whereas uncleaved, phosphorylated FRET-peptides maintain FRET. A ratiometric method, which calculates the ratio (Emission Ratio=Coumarin emission (445 nm)/Fluorescein emission (520 nm)) of donor emission to acceptor emission after excitation of the donor fluorophore at 400 nm, is used to quantitate reaction progress, as shown in the equation below. A significant benefit of this ratiometric method for quantitating reaction progress is the elimination of well-to-well variations in FRET-peptide concentration and signal intensities. As a result, the assay yields very high Z′-factor values (>0.7) at a low percent phosphorylation. Both cleaved and uncleaved FRET-peptides contribute to the fluorescence signals and therefore to the Emission Ratio. The extent of phosphorylation of the FRET-peptide can be calculated from the Emission Ratio. The Emission Ratio will remain low if the FRET-peptide is phosphorylated (i.e., no kinase inhibition) and will be high if the FRET-peptide is non-phosphorylated (i.e., kinase inhibition).
(§3) The Test Compounds are screened in 1% DMSO (final) in the well. For 10 point titrations, 3-fold serial dilutions are conducted from the starting concentration of the customer's choosing.
(§4) All Peptide/Kinase Mixtures are diluted to a 2× working concentration in the appropriate Kinase Buffer (see section Kinase Specific Assay Conditions for a complete description).
(§5) All ATP Solutions are diluted to a 4× working concentration in Kinase Buffer (50 mM HEPES pH 7.5, 0.01% BRIJ-35, 10 mM MgCl2, 1 mM EGTA). ATP Km apparent is previously determined using a Z″-LYTE assay.
(§6) The Development Reagent is diluted in Development Buffer (see section Kinase-Specific Assay Conditions—Direct and Cascade for a complete description).
(§7) Bar-coded Corning, low volume NBS, black 384-well plate (Corning Cat. #4514) • 1. 100 nL—100× Test Compound in 100% DMSO • 2. 2.4 μL—Kinase buffer • 3. 5 μL—2× Peptide/Kinase Mixture • 4. 2.5 μL—4×ATP Solution • 5. 30—second plate shake • 6. 60—minute Kinase Reaction incubation at room temperature • 7. 5 μL—Development Reagent Solution • 8. 30—second plate shake • 9. 60—minute Development Reaction incubation at room temperature • 10. Read on fluorescence plate reader and analyze the data Z′-LYTE Assay Controls
(§8) SelectScreen Kinase Profiling Service uses XLfit from IDBS. The dose response curve is curve fit to model number 205 (sigmoidal dose-response model).
The 2×CSF1R (FMS)/Tyr 01 mixture is prepared in 50 mM HEPES pH 7.5, 0.01% BRIJ-35, 10 mM MgCl2, 1 mM EGTA. The final 10 μL Kinase Reaction consists of 0.2-40 ng CSF1R (FMS) and 2 μM Tyr 01 in 50 mM HEPES pH 7.5, 0.01% BRIJ-35, 10 mM MgCl2, 1 mM EGTA. After the 1 hour Kinase Reaction incubation, 5 μL of a 1:256 dilution of Development Reagent B is added.

MAP4K2 (GCK) = molecular target: T1, MAP4K2 (GCK) (Homo sapiens, UniProt Q12851); experiment: Z'-LYTE SelectScreen biochemical kinase assay MAP4K2 (GCK)
T1 sequence (Q12851 1-820): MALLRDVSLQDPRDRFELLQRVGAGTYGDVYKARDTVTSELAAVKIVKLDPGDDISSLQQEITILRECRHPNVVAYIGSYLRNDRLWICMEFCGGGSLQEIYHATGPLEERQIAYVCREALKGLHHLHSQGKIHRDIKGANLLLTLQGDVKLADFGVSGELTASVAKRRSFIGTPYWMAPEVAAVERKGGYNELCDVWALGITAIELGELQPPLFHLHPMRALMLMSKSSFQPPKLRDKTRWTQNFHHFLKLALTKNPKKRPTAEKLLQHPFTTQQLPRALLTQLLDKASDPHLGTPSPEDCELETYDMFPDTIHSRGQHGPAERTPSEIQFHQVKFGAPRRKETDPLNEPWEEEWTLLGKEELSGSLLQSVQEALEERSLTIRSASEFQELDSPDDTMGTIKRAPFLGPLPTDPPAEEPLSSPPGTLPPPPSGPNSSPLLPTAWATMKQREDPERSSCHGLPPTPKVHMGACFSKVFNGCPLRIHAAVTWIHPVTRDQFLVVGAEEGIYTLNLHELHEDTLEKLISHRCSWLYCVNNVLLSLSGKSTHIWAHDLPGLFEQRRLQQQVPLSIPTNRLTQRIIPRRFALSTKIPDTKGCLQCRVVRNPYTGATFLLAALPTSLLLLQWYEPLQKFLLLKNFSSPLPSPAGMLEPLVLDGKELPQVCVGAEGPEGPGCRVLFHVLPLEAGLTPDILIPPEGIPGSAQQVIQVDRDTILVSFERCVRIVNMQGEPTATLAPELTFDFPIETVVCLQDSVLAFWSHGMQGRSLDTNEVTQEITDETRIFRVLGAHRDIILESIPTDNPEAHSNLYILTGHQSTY
Description: as §1, §2, §3, §4, §5, §6, §7, §8
The 2×MAP4K2 (GCK)/Ser/Thr 07 mixture is prepared in 50 mM HEPES pH 7.5, 0.01% BRIJ-35, 10 mM MgCl2, 1 mM EGTA. The final 10 μL Kinase Reaction consists of 0.11-3 ng MAP4K2 (GCK) and 2 μM Ser/Thr 07 in 50 mM HEPES pH 7.5, 0.01% BRIJ-35, 10 mM MgCl2, 1 mM EGTA. After the 1 hour Kinase Reaction incubation, 5 μL of a 1:45000 dilution of Development Reagent A is added.

[1] = 10 μmolar compound concentration, ATP at Km app, read-out: CSF1R (FMS) inhibition
[2] = read-out: % Inhibition mean CSF1R (FMS)
[3] = 10 μmolar compound concentration, ATP at Km app, read-out: MAP4K2 (GCK) inhibition
[4] = read-out: % Inhibition mean MAP4K2 (GCK)

Sequence of CSF1R (FMS) (P07333 20-972): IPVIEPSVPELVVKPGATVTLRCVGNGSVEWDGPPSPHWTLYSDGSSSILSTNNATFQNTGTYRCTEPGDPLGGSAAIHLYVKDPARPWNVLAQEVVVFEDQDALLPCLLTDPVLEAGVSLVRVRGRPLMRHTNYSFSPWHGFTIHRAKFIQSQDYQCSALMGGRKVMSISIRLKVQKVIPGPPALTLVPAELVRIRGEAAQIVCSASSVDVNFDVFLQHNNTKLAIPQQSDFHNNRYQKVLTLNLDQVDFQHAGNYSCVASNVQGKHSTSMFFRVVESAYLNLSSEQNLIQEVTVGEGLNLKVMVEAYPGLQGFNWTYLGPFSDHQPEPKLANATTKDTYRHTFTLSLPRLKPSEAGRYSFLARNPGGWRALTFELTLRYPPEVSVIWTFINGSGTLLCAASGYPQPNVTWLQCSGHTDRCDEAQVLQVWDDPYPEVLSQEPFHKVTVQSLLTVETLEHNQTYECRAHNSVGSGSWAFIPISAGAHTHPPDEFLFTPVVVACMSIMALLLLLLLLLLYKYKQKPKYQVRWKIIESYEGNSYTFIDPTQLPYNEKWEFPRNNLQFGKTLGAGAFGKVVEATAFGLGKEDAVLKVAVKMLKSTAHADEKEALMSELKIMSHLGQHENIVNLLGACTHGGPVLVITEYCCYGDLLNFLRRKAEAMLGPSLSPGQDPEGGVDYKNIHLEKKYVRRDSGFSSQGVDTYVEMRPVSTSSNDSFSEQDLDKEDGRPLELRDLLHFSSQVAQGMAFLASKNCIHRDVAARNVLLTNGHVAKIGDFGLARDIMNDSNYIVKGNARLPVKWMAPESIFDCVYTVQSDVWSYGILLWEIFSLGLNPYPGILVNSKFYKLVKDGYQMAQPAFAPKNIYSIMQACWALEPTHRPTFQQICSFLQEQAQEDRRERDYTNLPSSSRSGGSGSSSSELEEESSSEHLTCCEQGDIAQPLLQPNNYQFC

Row | inhibition at 10 µM (CSF1R (FMS); [1]) | inhibition at 10 µM (CSF1R (FMS); [2]) | inhibition at 10 µM (MAP4K2 (GCK); [3]) | inhibition at 10 µM (MAP4K2 (GCK); [4]) | inhibition at 10 µM (CSF1R (FMS); read-out: % Inhibition mean) | inhibition at 10 µM (MAP4K2 (GCK); read-out: % Inhibition mean) | SMILES
1 | 40 to 80% | 42% | < 40% | 22% |  |  | CCn1ncc2c1CCC(Nc1nc3c(-c4cccc(Cl)c4)cccn3n1)C2 (stereo not drawn) [Example 59, [8-(3-Chloro-phenyl)-[1,2,4]triazolo[1,5-a]pyridine-2-yl]-(1-ethyl-4,5,6,7-tetrahydro-1H-indazol-5-yl)-amine]
2 | > 80% | 82% | 40 to 80% | 43% |  |  | Cc1cc(F)ccc1-c1cccn2nc(Nc3ccc4c(cnn4C)c3)nc12 [Example 9, [8-(4-fluoro-2-methyl-phenyl)-[1,2,4]triazolo[1,5-a]pyridine-2-yl]-(1-methyl-1H-indazol-5-yl)-amine]
3 | < 40% | 28% | < 40% | 9% |  |  | CCCn1ncc2c1CCC(Nc1nc3c(-c4ccc(F)cc4C)cccn3n1)C2 (stereo not drawn) [Example 43, [8-(4-fluoro-2-methyl-phenyl)-[1,2,4]triazolo[1,5-a]pyridine-2-yl]-(1-propyl-4,5,6,7-tetrahydro-1H-indazol-5-yl)-amine]
4 | < 40% | 15% | < 40% | 11% |  |  | CCCCCn1ncc2c1CCC(Nc1nc3c(-c4ccc(F)cc4C)cccn3n1)C2 (stereo not drawn) [Example 47, [8-(4-fluoro-2-methyl-phenyl)-[1,2,4]triazolo[1,5-a]pyridine-2-yl]-(1-pentyl-4,5,6,7-tetrahydro-1H-indazol-5-yl)-amine]
5 | > 80% |  | > 80% |  | 90% | 94% | Fc1cccc(-c2cccn3nc(Nc4ccc5[nH]cnc5c4)nc23)c1 [Cpd. 293 in WO09155551, reference compound]
6 | 40 to 80% | 42% | < 40% | 8% |  |  | Cc1cc(F)ccc1-c1cccn2nc(NC3CCc4c(cnn4C)C3)nc12 (stereo not drawn) [Example 10, [8-(4-fluoro-2-methyl-phenyl)-[1,2,4]triazolo[1,5-a]pyridine-2-yl]-(1-methyl-4,5,6,7-tetrahydro-1H-indazol-5-yl)-amine]
7 | 40 to 80% | 62% | < 40% | 26% |  |  | CCn1ncc2c1CCC(Nc1nc3c(-c4ccc(OC)nc4)cccn3n1)C2 (stereo not drawn) [Example 71, (1-Ethyl-4,5,6,7-tetrahydro-1H-indazol-5-yl)-[8-(6-methoxy-pyridin-3-yl)-[1,2,4]triazolo[1,5-a]pyridine-2-yl]-amine]
8 | < 40% | 31% | < 40% | 25% |  |  | CCn1ncc2c1CC[C@@H](Nc1nc3c(-c4ccc(F)cc4C)cccn3n1)C2 [Example R-42, (R)-(1-Ethyl-4,5,6,7-tetrahydro-1H-indazol-5-yl)-[8-(4-fluoro-2-methyl-phenyl)-[1,2,4]triazolo[1,5-a]pyridine-2-yl]-amine]
9 | < 40% | 25% | < 40% | 13% |  |  | Cc1cc(F)ccc1-c1cccn2nc(NC3CCc4cnn(C)c4C3)nc12 (stereo not drawn) [Example 40, [8-(4-Fluoro-2-methyl-phenyl)-[1,2,4]triazolo[1,5-a]pyridine-2-yl]-(1-methyl-4,5,6,7-tetrahydro-1H-indazol-6-yl)-amine]
10 | < 40% | 34% | < 40% | 30% |  |  | CCn1ncc2c1CCC(Nc1nc3c(-c4ccc(F)cc4)cccn3n1)C2 (stereo not drawn) [Example 55, (1-Ethyl-4,5,6,7-tetrahydro-1H-indazol-5-yl)-[8-(4-fluoro-phenyl)-[1,2,4]triazolo[1,5-a]pyridine-2-yl]-amine]
11 | 40 to 80% | 58% | < 40% | 16% |  |  | CCn1ncc2c1CCC(Nc1nc3c(-c4ccccc4C)cccn3n1)C2 (stereo not drawn) [Example 56, (1-Ethyl-4,5,6,7-tetrahydro-1H-indazol-5-yl)-[8-(2-methyl-phenyl)-[1,2,4]triazolo[1,5-a]pyridine-2-yl]-amine]
12 | < 40% | 15% | < 40% | 16% |  |  | CCn1nc(Cl)c2c1CCC(Nc1nc3c(-c4ccc(F)cc4C)cccn3n1)C2 (stereo not drawn) [Example 48, (3-Chloro-1-ethyl-4,5,6,7-tetrahydro-1H-indazol-5-yl)-[8-(4-fluoro-2-methyl-phenyl)-[1,2,4]triazolo[1,5-a]pyridine-2-yl]-amine]
13 | < 40% | 29% | < 40% | 14% |  |  | CCn1ncc2c1CCC(Nc1nc3c(-c4ccc(C)nc4)cccn3n1)C2 (stereo not drawn) [Example 67, (1-Ethyl-4,5,6,7-tetrahydro-1H-indazol-5-yl)-[8-(6-methyl-pyridin-3-yl)-[1,2,4]triazolo[1,5-a]pyridine-2-yl]-amine]
14 | > 80% |  | > 80% |  | 93% | 98% | CC1(C)C(=O)Nc2ccc(Nc3nc4c(-c5cccc(F)c5)cccn4n3)cc21 [Cpd. 263 in WO09155551, reference compound]
15 | < 40% | 8% | < 40% | 9% |  |  | CCn1ncc2c1CCC(Nc1nc3c(-c4cccnc4OC)cccn3n1)C2 (stereo not drawn) [Example 69, (1-Ethyl-4,5,6,7-tetrahydro-1H-indazol-5-yl)-[8-(2-methoxy-pyridin-3-yl)-[1,2,4]triazolo[1,5-a]pyridine-2-yl]-amine]
